Laboratory results as given in patent publication US12527774B2, “Estrogen-related receptor alpha modulators” (LEAD PHARMA HOLDING B.V., priority 2019, dated 2026).

These compounds were tested against ERRα ligand binding domain (ERRα-LBD) (Homo sapiens (Human), UniProt P11474) (assay: ERRα AlphaScreen Assay). Conditions: disruption of binding of ERRα-LBD protein to biotin-PGC1α-3 co-activator peptide.
Type: biochemical
Text: This assay was based on the knowledge that nuclear receptors interact with cofactors in a ligand dependent matter. The sites of interaction have been mapped to LXXLL motifs that are present in the co-activator sequences. Short peptide sequences that contain the LXXLL motif mimic the behavior of full length co-activators.
The ERRα AlphaScreen Assay described here relies on the interaction of the co-activator peptide with purified bacterial-expressed ERRα ligand binding domain (ERRα-LBD); upon ligand binding the ERRα protein can undergo a conformational change resulting in a loss of co-activator binding.
Compounds of the present invention were tested for their ability to disrupt binding of ERRα-LBD protein to co-activator peptide using AlphaScreen® Technology (Perkin Elmer). ERRα-LBD protein was expressed in E. coli as a 6×His Small Ubiquitin-like Modifier (SUMO) fusion. Bacterial expressed 6His-SUMO-ERRα-LBD protein was purified using affinity chromatography. All experiments were performed at room temperature in 384-well white non-binding plates (Greiner) using 50 mM Tris-HCl pH 7.5, 100 mM NaCl, 0,1% Pluronic F-127, 0.05% BSA and 5 mM TCEP as the buffer. Final DMSO concentration was 1% in the assay. Compounds were assayed in triplicate and: incubated with 0.81 nM ERRα-LBD protein and 10 μg/mL streptavidin donor beads and 10 μg/mL Ni-chelate acceptor beads for 1 hour at room temperature; followed by a 2-hour incubation with 15 nM biotin-PGC1α-3 peptide (QRRPCSELLKYLTTNDDPP) corresponding to amino acids 202 to 220.
The AlphaScreen signal was measured using an Envision Xcite plate reader (Perkin Elmer). Data was normalized, and curve fitting analysis was performed in GraphPad Prism 7 using a four-parameter dose-response fit.
As multiple IC50 values were annotated for the same compound-protein pair, a mean pIC50 for each compound was determined.

Chain of ERRα ligand binding domain (ERRα-LBD) (P11474 193-421): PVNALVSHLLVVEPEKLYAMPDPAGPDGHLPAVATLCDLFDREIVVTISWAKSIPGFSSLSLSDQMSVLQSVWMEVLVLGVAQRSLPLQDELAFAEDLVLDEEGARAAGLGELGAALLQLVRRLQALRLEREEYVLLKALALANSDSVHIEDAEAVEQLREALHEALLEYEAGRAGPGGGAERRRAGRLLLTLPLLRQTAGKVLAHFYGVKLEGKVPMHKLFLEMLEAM

| mean pIC50 | SMILES |
| --- | --- |
| ≥ 8 | COc1cc(C2CC(=O)Nc3[nH]nnc32)ccc1OCc1ccccc1C(F)(F)F (stereo not drawn) [Example 90, 7-(3-methoxy-4-{[2-(trifluoromethyl)phenyl]methoxy}phenyl)-3H,4H,5H,6H, 7H-[1,2,3]triazolo[4,5-b]pyridin-5-one] |

Same assay, conditions: disruption of binding of ERRα-LBD protein to biotin-PGC1α-3 co-activator peptide; read-out: mean pIC50 (converted)

| IC50 | SMILES |
| --- | --- |
| 10 to 100 nM | COc1cc(C2CC(=O)Nc3c[nH]nc32)ccc1OCc1ccc(CCO)cc1C(F)(F)F (stereo not drawn) [Example 156, 7-(4-{[4-(2-hydroxyethyl)-2-(trifluoromethyl)phenyl]methoxy}-3-methoxyphenyl)-2H,4H,5H,6H, 7H-pyrazolo[4,3-b]pyridin-5-one] |
| 100 to 1000 nM | COc1cc(C2CC(=N)Nc3n[nH]cc32)ccc1OCc1ccccc1C(F)(F)F (stereo not drawn) [Example 167, 4-(3-methoxy-4-{[2-(trifluoromethyl)phenyl]methoxy}phenyl)-2H,4H,5H,6H, 7H-pyrazolo[3,4-b]pyridin-6-imine] |
| 100 to 1000 nM | COc1cc(C2CC(=O)Nc3n[nH]cc32)ccc1OCc1cccc2c1OC(C)(C)C2 (stereo not drawn) [Example 46, 4-{4-[(2,2-dimethyl-2,3-dihydro-1-benzofuran-7-yl)methoxy]-3-methoxyphenyl}-2H,4H,5H,6H, 7H-pyrazolo[3,4-b]pyridin-6-one] |
| 10 to 100 nM | O=C1CC(c2ccc(OCc3ccccc3C(F)(F)F)c(Cl)c2)c2c[nH]nc2N1 (stereo not drawn) [Example 72, 4-(3-chloro-4-{[2-(trifluoromethyl)phenyl]methoxy}phenyl)-2H,4H,5H,6H, 7H-pyrazolo[3,4-b]pyridin-6-one] |
| 100 to 1000 nM | COc1cc(C2CC(=O)Nc3n[nH]cc32)ccc1COc1cc(C)cc(C(F)(F)F)c1 (stereo not drawn) [Example 114, 4-(3-methoxy-4-{[3-methyl-5-(trifluoromethyl)phenoxy]methyl}phenyl)-2H,4H,5H,6H,7H-pyrazolo[3,4-b]pyridin-6-one] |
| 100 to 1000 nM | COC(=O)C1C(=O)Nc2n[nH]cc2C1c1ccc(COc2ccc(C(F)(F)F)cc2C(F)(F)F)c(OC)c1 (stereo not drawn) [Example 187, methyl 4-(4-{[2,4-bis(trifluoromethyl)phenoxy]methyl}-3-methoxyphenyl)-6-oxo-2H,4H,5H,6H, 7H-pyrazolo[3,4-b]pyridine-5-carboxylate] |
| 100 to 1000 nM | O=C1CC(c2ccc(OCc3ccccc3C(F)(F)F)c(C(=O)OCCO)c2)c2c[nH]nc2N1 (stereo not drawn) [Example 132, 2-hydroxyethyl 5-{6-oxo-2H,4H,5H,6H, 7H-pyrazolo[3,4-b]pyridin-4-yl}-2-{[2-(trifluoromethyl)phenyl]methoxy}benzoate] |
| 10 to 100 nM | O=C1CC(c2ccc(COc3ccc(C(F)(F)F)cc3C(F)(F)F)c(OC(F)(F)F)c2)c2c[nH]nc2N1 (stereo not drawn) [Example 109, 4-(4-{[2,4-bis(trifluoromethyl)phenoxy]methyl}-3-(trifluoromethoxy)phenyl)-2H,4H,5H,6H,7H-pyrazolo[3,4-b]pyridin-6-one] |
| 100 to 1000 nM | COC(=O)Cc1ccc(COc2ccc(C3CC(=O)Nc4n[nH]cc43)cc2OC)c(C(F)(F)F)c1 (stereo not drawn) [Example 148, methyl 2-[4-(2-methoxy-4-{6-oxo-2H,4H,5H,6H,7H-pyrazolo[3,4-b]pyridin-4-yl}phenoxymethyl)-3-(trifluoromethyl)phenyl]acetate] |
| 10 to 100 nM | C#Cc1ccccc1COc1ccc(C2CC(=O)Nc3n[nH]cc32)cc1OC (stereo not drawn) [Example 44, 4-{4-[(2-ethynylphenyl)methoxy]-3-methoxyphenyl}-2H,4H,5H,6H,7H-pyrazolo[3,4-b]pyridin-6-one] |
| 100 to 1000 nM | O=C1CC(c2cnc(OCc3ccccc3C(F)(F)F)nc2)c2c[nH]nc2N1 (stereo not drawn) [Example 165, 4-(2-{[2-(trifluoromethyl)phenyl]methoxy}pyrimidin-5-yl)-2H,4H,5H,6H, 7H-pyrazolo[3,4-b]pyridin-6-one] |
| 10 to 100 nM | COc1cc(C2CC(=O)Nc3n[nH]cc32)ccc1OCc1ccccc1Br (stereo not drawn) [Example 4, 4-{4-[(2-bromophenyl)methoxy]-3-methoxyphenyl}-2H,4H,5H,6H, 7H-pyrazolo[3,4-b]pyridin-6-one] |
| 100 to 1000 nM | COc1cc(-c2cc(=O)[nH]c3[nH]ccc23)ccc1OCc1ccccc1C(F)(F)F [Example 168, 4-(3-methoxy-4-{[2-(trifluoromethyl)phenyl]methoxy}phenyl)-1H,6H, 7H-pyrrolo[2,3-b]pyridin-6-one] |
| 100 to 1000 nM | COc1cc(C2CC(=O)Nc3ccsc32)ccc1OCc1ccccc1Cl (stereo not drawn) [Example 79, 7-{4-[(2-chlorophenyl)methoxy]-3-methoxyphenyl}-4H,5H,6H, 7H-thieno[3,2-b]pyridin-5-one] |
| 100 to 1000 nM | O=C1CC(c2ccc(OCc3ccccc3Br)cc2)c2c[nH]nc2N1 (stereo not drawn) [Example 58, 4-{4-[(2-bromophenyl)methoxy]phenyl}-2H,4H,5H,6H,7H-pyrazolo[3,4-b]pyridin-6-one] |
| 10 to 100 nM | COc1cc(C2CC(=O)Nc3n[nH]nc32)ccc1OCc1ccc(N)cc1C(F)(F)F (single isomer, unassigned; (-)) [Example 206, (−)-7-(4-{[4-amino-2-(trifluoromethyl)phenyl]methoxy}-3-methoxyphenyl)-2H,4H,5H,6H,7H-[1,2,3]triazolo[4,5-b]pyridin-5-one] |
| 10 to 100 nM | COc1cc(-c2cc(=O)[nH]c3n[nH]cc23)ccc1OCc1ccc(C#N)cc1C(F)(F)F [Example 181, 4-[(2-methoxy-4-{6-oxo-2H,6H, 7H-pyrazolo[3,4-b]pyridin-4-yl}phenoxy)methyl]-3-(trifluoromethyl)benzonitrile] |
| 10 to 100 nM | COc1cc(C2CC(=O)Nc3n[nH]cc32)ccc1OCc1ccc(NC(C)=O)cc1C(F)(F)F (stereo not drawn) [Example 139, N-{4-[(2-methoxy-4-{6-oxo-2H,4H,5H,6H,7H-pyrazolo[3,4-b]pyridin-4-yl}phenoxy)methyl]-3-(trifluoromethyl)phenyl}acetamide] |
| 10 to 100 nM | COC(=O)c1cc(C2CC(=O)Nc3n[nH]cc32)ccc1OCc1ccccc1C(F)(F)F (stereo not drawn) [Example 65, methyl 5-{6-oxo-2H,4H,5H,6H,7H-pyrazolo[3,4-b]pyridin-4-yl}-2-{[2-(trifluoromethyl)phenyl]methoxy}benzoate] |
| 100 to 1000 nM | COc1cc(C2CC(=O)Nc3n[nH]cc32)ccc1OCc1ccncc1C(F)(F)F (stereo not drawn) [Example 50, 4-(3-methoxy-4-{[3-(trifluoromethyl)pyridin-4-yl]methoxy}phenyl)-2H,4H,5H,6H,7H-pyrazolo[3,4-b]pyridin-6-one] |
| 100 to 1000 nM | COc1cc(C2CC(=O)Nc3c[nH]nc32)ccc1OCc1ccc(C(C)=O)cc1C(F)(F)F (stereo not drawn) [Example 94, 7-(4-{[4-acetyl-2-(trifluoromethyl)phenyl]methoxy}-3-methoxyphenyl)-2H,4H,5H,6H, 7H-pyrazolo[4,3-b]pyridin-5-one] |
| 10 to 100 nM | COCCCOc1cc(C2CC(=O)Nc3n[nH]cc32)ccc1OCc1ccccc1C(F)(F)F (stereo not drawn) [Example 163, 4-[3-(3-methoxypropoxy)-4-{[2-(trifluoromethyl)phenyl]methoxy}phenyl]-2H,4H,5H,6H,7H-pyrazolo[3,4-b]pyridin-6-one] |
| 10 to 100 nM | COc1cc(C2CC(=O)Nc3n[nH]cc32)ccc1OCc1ccc(CC(C)(C)O)cc1C(F)(F)F (stereo not drawn) [Example 153, 4-(4-{[4-(2-hydroxy-2-methylpropyl)-2-(trifluoromethyl)phenyl]methoxy}-3-methoxyphenyl)-2H,4H,5H,6H,7H-pyrazolo[3,4-b]pyridin-6-one] |
| 100 to 1000 nM | CCCOC(=O)c1ccccc1COc1ccc(C2CC(=O)Nc3n[nH]cc32)cc1OC (stereo not drawn) [Example 125, propyl 2-(2-methoxy-4-{6-oxo-2H,4H,5H,6H,7H-pyrazolo[3,4-b]pyridin-4-yl}phenoxymethyl)benzoate] |
| 100 to 1000 nM | COc1cc(C2CC(=O)Nc3n[nH]cc32)ccc1OCc1ccc(C(N)=O)cc1C(F)(F)F (stereo not drawn) [Example 121, 4-(2-methoxy-4-{6-oxo-2H,4H,5H,6H, 7H-pyrazolo[3,4-b]pyridin-4-yl}phenoxymethyl)-3-(trifluoromethyl)benzamide] |
| 100 to 1000 nM | O=C1CC(c2ccc(OCc3ccccc3C(F)(F)F)c(C(=O)Nc3nnc[nH]3)c2)c2c[nH]nc2N1 (stereo not drawn) [Example 131, 5-{6-oxo-2H, 4H,5H, 6H, 7H-pyrazolo[3,4-b]pyridin-4-yl}-N-(4H-1,2,4-triazol-3-yl)-2-{[2-(trifluoromethyl)phenyl]methoxy}benzamide] |
| 10 to 100 nM | COc1cc(C2CC(=O)Nc3n[nH]cc32)ccc1COc1ccc(C(F)(F)F)cc1C (stereo not drawn) [Example 112, 4-(3-methoxy-4-{[2-methyl-4-(trifluoromethyl)phenoxy]methyl}phenyl)-2H,4H,5H,6H,7H-pyrazolo[3,4-b]pyridin-6-one] |
| 100 to 1000 nM | COc1cc(C2CC(=O)Nc3n[nH]cc32)ccc1OCc1cccc(Cl)c1Cl (stereo not drawn) [Example 22, 4-{4-[(2,3-dichlorophenyl)methoxy]-3-methoxyphenyl}-2H,4H,5H,6H,7H-pyrazolo[3,4-b]pyridin-6-one] |
| 100 to 1000 nM | O=C1CC(c2ccc(OCc3ccccc3Cl)cc2)c2c[nH]nc2N1 (stereo not drawn) [Example 60, 4-{4-[(2-chlorophenyl)methoxy]phenyl}-2H,4H,5H,6H,7H-pyrazolo[3,4-b]pyridin-6-one] |
